This is an account of results in US11377441B2, “Covalent inhibitors of KRAS” (Araxes Pharma LLC, priority 2017, dated 2022).

In this assay the target is T1, KRAS G12C 1-169, his-tagged protein, GDP-loaded (Homo sapiens, UniProt P01116, G12C).
T1 construct: KRAS G12C 1-169, his-tagged protein, GDP-loaded
Kind of assay: Biochemical assay: covalent modification of KRAS G12C measured by mass spectrometry (RapidFire/TOF or Q-Exactive). The note with it: covalent binding to (modification of) KRAS G12C after a ten minute incubation period. In kind it is binding. In short, it runs like this: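 GDP-loaded KRAS G12C 1-169 (his-tagged) at 2 μM or 0.5 μM in 20 mM Hepes, 150 mM NaCl, 1 mM MgCl2, incubated with compound at 100, 30 or 10 μM at room temperature for 10 min, 30 min, 2 h or 24 h, then quenched with formic acid. Intact-protein LC-MS, deconvolved; percent modification from modified versus unmodified protein.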

Take `C=CC(=O)N1C[C@H](C)N(c2nc(OC[C@H]3CN(C)CCO3)nc3c(F)c(-c4c(C)ccc5[nH]nc(C6CC6)c45)c(Cl)cc23)C[C@H]1C` [Compound 189, 1-((2R,5S)-4-(6-chloro-7-(3-cyclopropyl-5-methyl-1H-indazol-4-yl)-8-fluoro-2-(((R)-4-methylmorpholiln-2-yl)methoxy)quinazolin-4-yl)-2,5-dimethylpiperazin-1-yl)prop-2-en-1-one]: the Binding % result is listed as “+++ (+++ indicates binding activity greater than 80%)”.
In the case of `C=CC(=O)N1C[C@H](C)N(c2nc(OC[C@H]3CN(C)CCO3)nc3c(F)c(-c4c(C)ccc5[nH]nc(C)c45)c(Cl)cc23)C[C@H]1C` [Compound 190, 1-((2R,5S)-4-(6-chloro-7-(3,5-dimethyl-1H-indazol-4-yl)-8-fluoro-2-(((R)-4-methylmorpholin-2-yl)methoxy)quinazolin-4-yl)-2,5-dimethylpiperazin-1-yl)prop-2-en-1-one] it was “+++ (+++ indicates binding activity greater than 80%)”; in that of `C=CS(=O)(=O)N1C[C@H](C)N(c2nc(N3CC(N(C)C)C3)nc3c(F)c(-c4c(C)ccc5cnn(C)c45)c(Cl)cc23)C[C@H]1C` [Compound 191, 1-(6-chloro-7-(1,6-dimethyl-1H-indazol-7-yl)-4-((2S,5R)-2,5-dimethyl-4-(vinylsulfonyl)piperazin-1-yl)-8-fluoroquinazolin-2-yl)-N,N-dimethylazetidin-3-amine], “+ (+ indicates binding activity greater than 0% and up to 50%)”; in that of `C=CC(=O)N1C[C@H](C)N(c2nc(N3CC(N(C)C)C3)nc3c(F)c(-c4c(C)ccc5[nH]nc(C)c45)c(C(F)(F)F)cc23)C[C@H]1C` [Compound 192, 1-((2R,5S)-4-(7-(3,5-dimethyl-1H-indazol-4-yl)-2-(3-(dimethylamino)azetidin-1-yl)-8-fluoro-6-(trifluoromethyl)quina-zolin-4-yl)-2,5-dimethylpiperazin-1-yl)prop-2-en-1-one], “+++ (+++ indicates binding activity greater than 80%)”.
With `C=CC(=O)N1C[C@H](C)N(c2nc(N3CC(N(C)C)C3)nc3c(F)c(-c4c(C)ccc5[nH]nc(C6CC6)c45)c(C(F)(F)F)cc23)C[C@H]1C` [Compound 193, 1-((2R,5S)-4-(7-(3-cyclopropyl-5-methyl-1H-indazol-4-yl)-2-(3-(dimethylamino)azetidin-1-yl)-8-fluoro-6-(trifluoromethyl)quina-zolin-4-yl)-2,5-dimethylpiperazin-1-yl)prop-2-en-1-one], the Binding % entry is “+++ (+++ indicates binding activity greater than 80%)”.
The entry for `C=CS(=O)(=O)N1C[C@H](C)N(c2nc(N3CC(N(C)C)C3)nc3c(F)c(-c4c(C)ccc5[nH]nc(C)c45)c(Cl)cc23)C[C@H]1C` [Compound 194, 1-(6-chloro-7-(3,5-dimethyl-1H-indazol-4-yl)-4-((2S,5R)-2,5-dimethyl-4-(vinylsulfonyl)piperazin-1-yl)-8-fluoroquinazolin-2-yl)-N,N-dimethylazetidin-3-amine] is “+ (+ indicates binding activity greater than 0% and up to 50%)”.
For the compound `C=CC(=O)N1C[C@H](C)N(c2nc(N3CC(N(C)C)C3)nc3c(F)c(-c4c(C)ccc5c(Cl)nn(C)c45)c(Cl)cc23)C[C@H]1C` [Compound 195, 1-((2R,5S)-4-(6-chloro-7-(3-chloro-1,6-dimethyl-1H-indazol-7-yl)-2-(3-(dimethylamino)azetidin-1-yl)-8-fluoroquinazolin-4-yl)-2,5-dimethylpiperazin-1-yl)prop-2-en-1-one], the Binding % result is “+ (+ indicates binding activity greater than 0% and up to 50%)”.
In the case of `C=CC(=O)N1C[C@H](C)N(c2nc(OC[C@H]3CCN(C)C3)nc3c(F)c(-c4c(C)ccc5cnn(C)c45)c(Cl)cc23)C[C@H]1C` [Compound 196, 1-((2R,5S)-4-(6-chloro-7-(1,6-dimethyl-1H-indazol-7-yl)-8-fluoro-2-(((S)-1-methylpyrrolidin-3-yl)methoxy)quinazolin-4-yl)-2,5-dimethylpiperazin-1-yl)prop-2-en-1-one] it was “++ (++ indicates binding activity from 50 to 80%)”; in that of `C=CC(=O)N1C[C@H](C)N(c2nc(OC[C@@H]3C[C@H](OC)CN3C)nc3c(F)c(-c4c(C)ccc5cnn(C)c45)c(Cl)cc23)C[C@H]1C` [Compound 197, 1-((2R,5S)-4-(6-chloro-7-(1,6-dimethyl-1H-indazol-7-yl)-8-fluoro-2-(((2S,4S)-4-methoxy-1-methylpyrrolidin-2-yl)methoxy)quinazolin-4-yl)-2,5-dimethylpiperazin-1-yl)prop-2-en-1-one], “+++ (+++ indicates binding activity greater than 80%)”; in that of `C=CC(=O)N1C[C@H](C)N(c2nc(OC[C@H]3CCN(C)C3)nc3c(F)c(-c4c(C)ccc5cnn(C6CC6)c45)c(Cl)cc23)C[C@H]1C` [Compound 198, 1-((2R,5S)-4-(6-chloro-7-(1-cyclopropyl-6-methyl-1H-indazol-7-yl)-8-fluoro-2-(((S)-1-methylpyrrolidin-3-yl)methoxy)quinazolin-4-yl)-2,5-dimethylpiperazin-1-yl)prop-2-en-1-one], “++ (++ indicates binding activity from 50 to 80%)”.
In the case of `C=CC(=O)N1C[C@H](C)N(c2nc(OC[C@@H]3C[C@H](OC)CN3C)nc3c(F)c(-c4c(C)ccc5cnn(C6CC6)c45)c(Cl)cc23)C[C@H]1C` [Compound 199, 1-((2R,5S)-4-(6-chloro-7-(1-cyclopropyl-6-methyl-1H-indazol-7-yl)-8-fluoro-2-(((2S,4S)-4-methoxy-1-methylpyrrolidin-2-yl)methoxy)quinazolin-4-yl)-2,5-dimethylpiperazin-1-yl)prop-2-en-1-one] it was “+++ (+++ indicates binding activity greater than 80%)”; in that of `C=CC(=O)N1C[C@H](C)N(c2nc(N3CC(N(C)C)C3)nc3c(F)c(-c4c(F)ccc5cnn(C6CC6)c45)c(Cl)cc23)C[C@H]1C` [Compound 200, 1-((2R,5S)-4-(6-chloro-7-(1-cyclopropyl-6-fluoro-1H-indazol-7-yl)-2-(3-(dimethylamino)azetidin-1-yl)-8-fluoroquinazolin-4-yl)-2,5-dimethylpiperazin-1-yl)prop-2-en-1-one], “+ (+ indicates binding activity greater than 0% and up to 50%)”; in that of `C=CC(=O)N1C[C@H](C)N(c2nc(N3CC(N(C)C)C3)nc3c(F)c(-c4c(C)ccc5ccn(C)c45)c(Cl)cc23)C[C@H]1C` [Compound 202, 1-((2R,5S)-4-((S)-6-chloro-7-(1,6-dimethyl-1H-indol-7-yl)-2-(3-(dimethylamino)azetidin-1-yl)-8-fluoroquinazolin-4-yl)-2,5-dimethylpiperazin-1-yl)prop-2-en-1-one], “+ (+ indicates binding activity greater than 0% and up to 50%)”.
The entry for `C=CC(=O)N1C[C@H](C)N(c2nc(N3CC(N(C)C)C3)nc3c(F)c(-c4c(C)ccc5ccn(C)c45)c(Cl)cc23)C[C@H]1C` [Compound 203, 1-((2R,5S)-4-((R)-6 chloro-7-(1,6-dimethyl-1H-indol-7-yl)-2-(3-(dimethylamino)azetidin-1-yl)-8-fluoroquinazolin-4-yl)-2,5-dimethylpiperazin-1-yl)prop-2-en-1-one] is “+++ (+++ indicates binding activity greater than 80%)”; for `C=CC(=O)N1C[C@H](C)N(c2nc(OCC(C)(C)N(C)C)nc3c(F)c(-c4c(C)ccc5cnn(C)c45)c(Cl)cc23)C[C@H]1C` [Compound 205, 1-((2R,5S)-4-(6-chloro-7-(1,6-dimethyl-1H-indazol-7-yl)-2-(2-(dimethylamino)-2-methylpropoxy)-8-fluoroquinazolin-4-yl)-2,5-dimethylpiperazin-1-yl)prop-2-en-1-one] it is “+++ (+++ indicates binding activity greater than 80%)”.
Take `C=CC(=O)N1C[C@H](C)N(c2nc(N3CC(NC)C3)nc3c(F)c(-c4c(C)ccc5[nH]nc(C6CC6)c45)c(Cl)cc23)C[C@H]1C` [Compound 209, 1-((2R,5S)-4-((R)-6-chloro-7-(3-cyclopropyl-5-methyl-1H-indazol-4-yl)-8-fluoro-2-(3-(methylamino)azetidin-1-yl)quinazolin-4-yl)-2,5-dimethylpiperazin-1-yl)prop-2-en-1-one]: the Binding % result is recorded as “+++ (+++ indicates binding activity greater than 80%)”.
In the case of `[2H]C([2H])([2H])N(C1CN(c2nc(N3C[C@@H](C)N(C(=O)C=C)C[C@@H]3C)c3cc(Cl)c(-c4c(C)ccc5cnn(C6CC6)c45)c(F)c3n2)C1)C([2H])([2H])[2H]` [Compound 213, 1-((2R,5S)-4-((S)-6-chloro-7-(1-cyclopropyl-6-methyl-1H-indazol-7-yl)-2-(3-(di-perdeuteromethylamino)azetidin-1-yl)-8-fluoroquinazolin-4-yl)-2,5-dimethylpiperazin-1-yl)prop-2-en-1-one] it was “+ (+ indicates binding activity greater than 0% and up to 50%)”.
On to `[2H]C([2H])([2H])N(C1CN(c2nc(N3C[C@@H](C)N(C(=O)C=C)C[C@@H]3C)c3cc(Cl)c(-c4c(C)ccc5cnn(C6CC6)c45)c(F)c3n2)C1)C([2H])([2H])[2H]` [Compound 214, 1-((2R,5S)-4-((R)-6-chloro-7-(1-cyclopropyl-6-methyl-1H-indazol-7-yl)-2-(3-(di-perdeuteromethylamino)azetidin-1-yl)-8-fluoroquinazolin-4-yl)-2,5-dimethylpiperazin-1-yl)prop-2-en-1-one], for which the Binding % entry was “+++ (+++ indicates binding activity greater than 80%)”.
In the case of `C=CC(=O)N1C[C@H](C)N(c2nc(OCC(C)(C)N(C)C)nc3c(F)c(-c4c(C)ccc5cnn(C6CC6)c45)c(Cl)cc23)C[C@H]1C` [Compound 215, 1-((2R,5S)-4-(6-chloro-7-(1-cyclopropyl-6-methyl-1H-indazol-7-yl)-2-(2-(dimethylamino)-2-methylpropoxy)-8-fluoroquinazolin-4-yl)-2,5-dimethylpiperazin-1-yl)prop-2-en-1-one] it was “+++ (+++ indicates binding activity greater than 80%)”.
